Read-outs that look alike come from different tables or passages of the source.
How the values were obtained:
[1] = target: T1, wild type HCV NS3/4A 1b protease enzyme (Hepatitis C virus genotype 1b, UniProt P26663); experiment: HCV Protease FRET Assay (IC50_APP), wild type; format: biochemical
T1 construct: 10× stocks of NS3/4A protease enzyme from Bioenza (Mountain View, Calif.); purchased Bioenza (Mountain View, Calif.)

[2] = target: T2, C159S mutant of the HCV NS3/4A 1b protease enzyme (Hepatitis C virus genotype 1b, UniProt P26663, C1185S); experiment: HCV Protease FRET Assay (IC50_APP), C159S mutant; format: biochemical; conditions: apparent IC50, C159S mutant
T2 construct: 10× stocks of NS3/4A protease enzyme from Bioenza (Mountain View, Calif.); purchased Bioenza (Mountain View, Calif.)
Experimental: (§1) HCV Protease FRET Assay for WT and Mutated NS3/4A 1b Enzymes (IC50—APP).
(§2) The following protocol was used to generate “apparent” IC50 (IC50—APP) values as depicted in Table 6, below. […] 5 μL of each enzyme were added to Corning (#3575) 384-well, black, microtiter plates (Corning, N.Y.) after spotting a 0.5 μL volume of 50% DMSO and serially diluted compounds prepared in 50% DMSO. Protease reactions were immediately started after enzyme addition with the addition of 45 μL of the FRET substrate and monitored for 60-90 minutes at λex485/λem520 in a Synergy^4 plate reader from BioTek (Winooski, Vt.). At the conclusion of each assay, progress curves from each well were examined for linear reaction kinetics and fit statistics (R^2, 95% confidence intervals, absolute sum of squares).
(§3) The compound numbers correspond to the compound numbers in Table 3. […] ;

[3] = target: T3, D168A mutant of the HCV NS3/4A 1b protease enzyme (Hepatitis C virus genotype 1b, UniProt P26663, D1194A); experiment: HCV Protease FRET Assay (IC50_APP), D168A mutant; format: biochemical; conditions: apparent IC50, D168A mutant; read-out: IC50_APP, HCV D168A
T3 construct: 10× stocks of NS3/4A protease enzyme from Bioenza (Mountain View, Calif.); purchased Bioenza (Mountain View, Calif.)

[4] = target: T4, R155K mutant of the HCV NS3/4A 1b protease enzyme (Hepatitis C virus genotype 1b, UniProt P26663, R1181K); experiment: HCV Protease FRET Assay (IC50_APP), R155K mutant; format: biochemical; conditions: apparent IC50, R155K mutant; read-out: IC50_APP, HCV R155K
T4 construct: 10× stocks of NS3/4A protease enzyme from Bioenza (Mountain View, Calif.); purchased Bioenza (Mountain View, Calif.)
Experimental: as §1, §2, §3

[5] = system: HCV RNA replicon in cell line ET (luc-ubi-neo/ET), human Huh7 hepatoma; experiment: Luciferase Assay (Example 35), replicon-derived luciferase activity; format: cell-based; conditions: Hepatitis C virus, Huh-7; assay described in Example 35
Experimental: The compounds were assayed to evaluate the antiviral activity and cytotoxicity of compounds using replicon-derived luciferase activity. This assay used the cell line ET (luc-ubi-neo/ET), which is a human Huh7 hepatoma cell line that contains an HCV RNA replicon with a stable luciferase (Luc) reporter and cell culture-adaptive mutations. The ET cell line was grown in a 5% CO2 incubator at 37° C. in Dulbecco's modified essential media (DMEM) supplemented with 2 mM L-glutamine, nonessential amino acids, 100 U of penicillin/ml, 100 μg of streptomycin/mL, and 10% fetal bovine serum. G418 (Geneticin; Invitrogen) was added at a final concentration of 400 ug//mL.
All cell culture reagents were obtained from Invitrogen (Carlsbad). Cells were trypsinized (1% trypsin:EDTA) and plated out at 5×10^3 cells/well in white 96-well assay plates (Costar) dedicated to cell number (cytotoxicity) or antiviral activity assessments. Test compounds were added at six 3-fold concentrations each and the assay was run in DMEM, 5% FBS, 1% pen-strep, 1% glutamine, 1% non essential amino acid. Human interferon alpha-2b (PBL Biolabs, New Brunswick, N.J.) was included in each run as a positive control compound. Cells were processed 72 hr post test compound addition when the cells were still subconfluent. Antiviral activity was measured by analyzing replicon-derived luciferase activity using the Steady-Glo Luciferase Assay System (Promega, Madison, Wis.) according to manufacturer's instruction. The number of cells in each well was determined by Cell Titer Blue Assay (Promega). Compound profile was derived by calculating applicable EC50 (effective concentration inhibiting virus replication by 50%), EC90 (effective concentration inhibiting virus replication by 90%), IC50 (concentration decreasing cell viability by 50%) and SI50 (selective index: […]) values.

[6] = target: T5, A156T mutant of the HCV NS3/4A 1b protease enzyme (Hepatitis C virus genotype 1b, UniProt P26663, A1182T); experiment: HCV Protease FRET Assay (IC50_APP), A156T mutant; format: biochemical; conditions: apparent IC50, A156T mutant; read-out: IC50_APP, HCV A156T
T5 construct: 10× stocks of NS3/4A protease enzyme from Bioenza (Mountain View, Calif.); purchased Bioenza (Mountain View, Calif.)

[7] = system: HCV RNA replicon in cell line ET (luc-ubi-neo/ET), human Huh7 hepatoma; experiment: Method A: HCV RNA replicon antiviral assay (luciferase, ET cell line); format: cell-based, Hepatitis C virus; conditions: Hepatitis C virus, Huh-7, assay described in Example 22
In short: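 Six 3-fold dilutions of each drug were tested on subconfluent luc-ubi-neo/ET Huh7 replicon cells (5×10^3/well) for 72 hr at 37 °C. EC50 and EC90 came from luciferase read-out, IC50 from CytoTox-1 cell number, and […]; interferon alpha-2b was run each time as control.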

[8] = target: T6, HCV NS3/4A wild type (genotype 1b) (Hepatitis C virus genotype 1b, UniProt P26663); experiment: Mass spectrometric analysis (MALDI-TOF) of covalent modification, HCV wild type; format: binding; conditions: 10-fold excess of compound to protein, 1 hr
T6 construct: mass spectroscopic analysis of HCV NS3/4A wild-type protease domain; purchased Bioenza Calif
Experimental: Mass spectrometric analysis of HCV wild type or HCV variant C159S in the presence of test compound was performed. 100 pmols of HCV wild type (Bioenza Calif.) was incubated with compound for 1 hr and 3 hrs at 10-fold access of […] to protein. 1 ul aliquots of the samples (total volume of 4.24 ul) were diluted with 10 ul of 0.1% TFA prior to micro C4 ZipTipping directly onto the MALDI target using Sinapinic acid as the desorption matrix (10 mg/ml in 01% TFA:Acetonitrile 50:50). Analyses were performed on a Shimadzu Biotech Axima TOF^2 (Shimadzu Instruments) matrix-assisted-laser desorption/ionization Time-of-Flight (MALDI-TOF) mass spectrometer. The same procedure was carried out on 100 pmols of HCV C159S mutant of HCV protease for 3 hrs at 10-fold excess of (I-3) to protein.
As depicted in FIGS. 2, 3, 4, and 5, mass spectrometric analysis of HCV wild type or HCV mutants in the presence of test compound (I-3) was performed. […] 1 ul aliquots of the samples were diluted with 10 ul of 0.1% TFA prior to micro C4 ZipTipping directly onto the MALDI target using Sinapinic acid as the desorption matrix (10 mg/ml in 0.1% TFA:Acetonitrile 50:50).
Mass spectrometric analysis of HCV wild type (genotype 1b) in the presence of test compounds I-73 and I-75 was performed using the following protocol: HCV NS3/4A wild type (wt) was incubated for 1 hr at a 10× fold access of test compound to protein. 2 ul aliquots of the samples were diluted with 10 ul of 0.1% TFA prior to micro C4 ZipTipping directly onto the MALDI target using Sinapinic acid as the desorption matrix (10 mg/ml in 0.1% TFA:Acetonitrile 50:50). For intact protein mass measurement the instrument was set in Linear mode using a pulsed extraction setting of 24,500 and apomyoglobin as the standard to calibrate the instrument.
Mass spectrometric analysis of HCV NS3/4A genotypes 1a, 1b, 2a, and 3a in the presence of test compound I-96 was performed using the following protocol: HCV NS3/4A was incubated for 3 hr at a 10× fold access of test compound to protein. […]

[9] = read-out: IC50_APP, WT, apparent IC50, wild type NS3/4A 1b

Compound	IC50 [1, 9]	IC50 [2]	IC50 [3]	IC50 [4]	EC50 [5]	IC50 [6]	IC90 ([7]; IC90)	IC50 ([7]; read-out: Replicon (IC50))	IC50 [1]	Covalent modification of HCV wild type by mass spectrometry [8]
C=CC(=O)NCC(NC(=O)OC(C)(C)C)C(=O)N1CC(n2nnc(-c3ccc(OC)cc3)n2)CC1C(=O)NC1(C(=O)NS(=O)(=O)C2CC2)CC1C=C (centres unmarked) [Compound I-108]	< 10 nM	100 to 1000 nM	1000 to 10000 nM	1000 to 10000 nM	100 to 1000 nM					
C=CC(=O)N[C@H](Cc1ccccc1)C(=O)N1C[C@H](Oc2nccc3cc(OC)ccc23)C[C@H]1C(=O)N[C@]1(C(=O)NS(=O)(=O)C2CC2)C[C@H]1C=C [Compound I-106]	< 10 nM	100 to 1000 nM	100 to 1000 nM	10 to 100 nM	10 to 100 nM	< 10 nM				
C=CC(=O)N[C@H](CC(C)C)C(=O)N1C[C@H](Oc2nccc3cc(OC)ccc23)C[C@H]1C(=O)N[C@]1(C(=O)NS(=O)(=O)C2CC2)C[C@H]1C=C [Compound I-105]	< 10 nM	100 to 1000 nM	100 to 1000 nM	10 to 100 nM	10 to 100 nM	< 10 nM				
C=C[C@@H]1C[C@]1(NC(=O)[C@@H]1C[C@@H](Oc2cc(-c3ccccc3)nc3cc(OC)ccc23)CN1C(=O)[C@@H](NC(=O)OC(C)(C)C)[C@@H](C)OC(=O)/C=C/C)C(=O)NS(=O)(=O)C1CC1 [Compound I-50, (E)-((2R,3S)-3-(tert-butoxycarbonylamino)-4-((2S,4R)-2-((1R,2S)-1-(cyclopropylsulfonylcarbamoyl)-2-vinylcyclopropylcarbamoyl)-4-(7-methoxy-2-phenylquinolin-4-yloxy)pyrrolidin-1-yl)-4-oxobutan-2-yl)but-2-enoate]			100 to 1000 nM			100 to 1000 nM	< 10 nM	< 10 nM	< 10 nM	measurable covalent modification

Source: US8309685B2 (Celgene Avilomics Research, Inc., priority 2007, dated 2012)
